Read-outs that look alike come from different tables or passages of the source.
What was measured:
[1] = molecular target: T1, TAOK2 (Homo sapiens, UniProt Q9UL54); test: Kinase panel profiling at 1 µmol/L (mobility shift assay, Carna); type: biochemical; details: 1 µmol/L of BTK inhibitor
T1 construct: purchased Carna Biosciences
T1 sequence (Q9UL54 1-1235): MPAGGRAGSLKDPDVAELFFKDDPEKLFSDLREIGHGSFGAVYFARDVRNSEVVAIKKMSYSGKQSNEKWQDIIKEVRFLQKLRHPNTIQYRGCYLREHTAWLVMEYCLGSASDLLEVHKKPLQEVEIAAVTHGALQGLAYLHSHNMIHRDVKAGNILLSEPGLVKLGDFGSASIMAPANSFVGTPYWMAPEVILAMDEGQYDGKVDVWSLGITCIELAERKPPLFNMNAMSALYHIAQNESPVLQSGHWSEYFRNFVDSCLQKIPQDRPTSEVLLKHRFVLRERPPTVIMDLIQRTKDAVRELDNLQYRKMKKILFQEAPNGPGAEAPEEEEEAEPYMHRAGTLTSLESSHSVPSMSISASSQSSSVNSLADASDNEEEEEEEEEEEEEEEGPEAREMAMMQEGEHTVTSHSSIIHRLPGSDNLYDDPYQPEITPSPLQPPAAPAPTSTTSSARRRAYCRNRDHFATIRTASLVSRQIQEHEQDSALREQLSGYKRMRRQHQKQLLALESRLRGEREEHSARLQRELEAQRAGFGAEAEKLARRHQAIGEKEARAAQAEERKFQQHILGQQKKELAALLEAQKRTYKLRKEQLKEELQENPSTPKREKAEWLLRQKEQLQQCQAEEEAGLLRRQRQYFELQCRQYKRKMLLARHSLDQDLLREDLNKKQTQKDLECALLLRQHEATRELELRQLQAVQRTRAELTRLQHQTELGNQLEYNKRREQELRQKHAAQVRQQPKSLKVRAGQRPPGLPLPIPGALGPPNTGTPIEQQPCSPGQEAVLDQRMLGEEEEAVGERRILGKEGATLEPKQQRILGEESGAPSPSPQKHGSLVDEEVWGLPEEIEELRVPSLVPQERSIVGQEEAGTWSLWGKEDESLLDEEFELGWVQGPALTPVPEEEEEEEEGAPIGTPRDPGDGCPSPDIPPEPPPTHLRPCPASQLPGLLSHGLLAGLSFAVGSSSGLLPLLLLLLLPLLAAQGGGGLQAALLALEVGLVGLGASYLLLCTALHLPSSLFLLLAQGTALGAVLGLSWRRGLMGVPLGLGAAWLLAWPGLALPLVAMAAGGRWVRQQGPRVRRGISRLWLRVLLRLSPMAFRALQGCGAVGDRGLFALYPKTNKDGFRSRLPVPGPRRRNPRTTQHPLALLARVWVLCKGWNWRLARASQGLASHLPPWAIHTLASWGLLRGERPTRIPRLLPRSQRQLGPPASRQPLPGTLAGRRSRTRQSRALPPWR

[2] = test system: REC-1; test: Cell viability assay (ATPlite); type: cell-based, human; details: REC-1 cell line; for IC50: 72 hours incubation
Method: (§1) Intracellular ATP content was used as an indirect readout of cell number using the ATPlite 1Step bioluminescence assay (Revvity, Groningen, the Netherlands). Cells were seeded in 384-well plates at an optimized density to ensure unrestricted growth and maximal signal at the end of the experiment. After 24 hours of incubation, the starting cell number was determined by adding ATPlite to each well of a control plate and recording luminescence on an Envision multimode reader (Revvity, Waltham, MA, USA) ([4]). […] Vehicle-treated controls were included to determine maximal cell proliferation. […] After incubation for an additional 72 hours, the ATP content was measured in each well using ATPlite. The luminescent signal in inhibitor-treated wells was normalized to vehicle-treated control wells to determine the percentage viability at each concentration. Cell doublings were determined by relating the cell number of vehicle-treated controls to the starting cell number for each cell line. […] The quality of the complete assay was determined by a parallel test with doxorubicin on two cell lines. IC50 values were calculated by fitting a four-parameter logistic model to the percentage viability values using IDBS XLfit5 (IDBS, Guildford, United Kingdom). All curves were visually inspected and submitted to an F-test as implemented in IDBS XLfit5. […] When this dose range was too high in a certain cell line to allow for a reliable determination of the IC50, a new dilution series was prepared using a diluted stock solution and was used to retest the compound on the cell line.

[3] = test system: SU-DHL-6; test: Cell viability assay (ATPlite); type: cell-based, human; details: SU-DHL-6 cell line; for IC50: 72 hours incubation
Method: as §1

[4] = molecular target: T2, PKACα (Homo sapiens, UniProt P17612); test: Kinase panel profiling at 1 µmol/L (mobility shift assay, Carna); type: biochemical; details: 1 µmol/L of BTK inhibitor
T2 construct: purchased Carna Biosciences

[5] = molecular target: T3, RSK1 (Homo sapiens, UniProt Q15418); test: as above; type: biochemical; details: 1 µmol/L of BTK inhibitor
T3 construct: purchased Carna Biosciences

[6] = molecular target: T4, MUSK (Homo sapiens, UniProt O15146); test: as above; type: biochemical; details: 1 µmol/L of BTK inhibitor
T4 construct: purchased Carna Biosciences
T4 sequence (O15146 24-869): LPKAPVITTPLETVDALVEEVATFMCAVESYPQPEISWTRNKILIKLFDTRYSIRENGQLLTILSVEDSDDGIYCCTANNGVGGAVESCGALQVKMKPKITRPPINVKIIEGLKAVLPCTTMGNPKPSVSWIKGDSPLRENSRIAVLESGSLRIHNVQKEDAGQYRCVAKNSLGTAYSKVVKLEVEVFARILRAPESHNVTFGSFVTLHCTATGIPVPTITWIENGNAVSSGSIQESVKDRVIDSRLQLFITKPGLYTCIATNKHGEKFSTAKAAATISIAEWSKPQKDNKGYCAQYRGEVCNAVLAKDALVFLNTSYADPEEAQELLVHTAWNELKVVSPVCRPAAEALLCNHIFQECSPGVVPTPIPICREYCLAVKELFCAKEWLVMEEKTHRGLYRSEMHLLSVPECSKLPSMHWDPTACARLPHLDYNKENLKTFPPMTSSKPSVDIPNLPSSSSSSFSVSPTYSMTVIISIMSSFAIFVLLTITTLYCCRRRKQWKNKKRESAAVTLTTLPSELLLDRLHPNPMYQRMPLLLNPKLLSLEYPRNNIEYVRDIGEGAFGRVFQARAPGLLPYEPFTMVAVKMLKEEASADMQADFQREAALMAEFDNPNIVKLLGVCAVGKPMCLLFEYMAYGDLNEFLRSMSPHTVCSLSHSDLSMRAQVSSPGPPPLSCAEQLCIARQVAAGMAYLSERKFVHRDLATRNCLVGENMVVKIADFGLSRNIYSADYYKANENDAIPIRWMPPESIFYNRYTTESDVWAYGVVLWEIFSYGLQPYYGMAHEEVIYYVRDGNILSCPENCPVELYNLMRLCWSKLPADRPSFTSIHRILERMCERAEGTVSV

[7] = molecular target: ERK2 (Homo sapiens, UniProt P28482); test: Kinase enzyme activity assay (mobility shift assay, Carna); details: for Percentage inhibition of kinase enzyme activity: Erk2, 1 µmol/L of BTK inhibitor
[8] = Homo sapiens, Rec1, read-out: IC50

Chain of ERK2 (P28482 whole entry): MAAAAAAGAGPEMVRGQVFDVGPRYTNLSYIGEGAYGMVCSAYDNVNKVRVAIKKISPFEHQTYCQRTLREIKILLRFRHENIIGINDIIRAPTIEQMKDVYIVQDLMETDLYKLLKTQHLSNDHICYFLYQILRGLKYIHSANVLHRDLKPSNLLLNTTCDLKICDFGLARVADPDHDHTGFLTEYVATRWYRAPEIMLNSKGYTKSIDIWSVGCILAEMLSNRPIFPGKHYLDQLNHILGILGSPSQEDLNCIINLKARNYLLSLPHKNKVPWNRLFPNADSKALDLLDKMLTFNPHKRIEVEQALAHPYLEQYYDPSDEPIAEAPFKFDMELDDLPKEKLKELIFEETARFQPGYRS
T3 sequence (Q15418 whole entry): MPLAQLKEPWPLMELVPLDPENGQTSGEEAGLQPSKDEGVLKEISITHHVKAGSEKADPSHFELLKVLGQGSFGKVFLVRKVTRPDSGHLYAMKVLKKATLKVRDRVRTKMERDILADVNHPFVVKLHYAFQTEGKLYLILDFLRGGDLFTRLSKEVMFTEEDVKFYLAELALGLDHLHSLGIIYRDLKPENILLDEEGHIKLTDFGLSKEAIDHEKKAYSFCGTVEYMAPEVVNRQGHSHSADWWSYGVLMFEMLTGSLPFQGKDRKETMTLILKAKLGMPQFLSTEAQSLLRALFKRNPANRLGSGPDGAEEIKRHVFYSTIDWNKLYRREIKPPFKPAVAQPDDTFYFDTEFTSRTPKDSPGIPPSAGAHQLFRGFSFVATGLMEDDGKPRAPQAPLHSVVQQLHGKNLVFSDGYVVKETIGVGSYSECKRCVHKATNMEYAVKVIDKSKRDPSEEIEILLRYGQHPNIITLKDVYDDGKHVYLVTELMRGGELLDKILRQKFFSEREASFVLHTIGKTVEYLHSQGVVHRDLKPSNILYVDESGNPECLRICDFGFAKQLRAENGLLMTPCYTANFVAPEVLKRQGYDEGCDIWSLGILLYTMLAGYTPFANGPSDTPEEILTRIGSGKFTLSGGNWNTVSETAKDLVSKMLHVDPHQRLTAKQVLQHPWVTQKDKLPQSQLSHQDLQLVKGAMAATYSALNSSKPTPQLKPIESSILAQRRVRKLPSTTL

| Compound | Percentage inhibition of kinase enzyme activity [1] [%] | IC50 [2, 8] [nM] | IC50 ([3]; Homo sapiens, read-out: IC50) [nM] | Percentage inhibition of kinase enzyme activity [4] [%] | Percentage inhibition of kinase enzyme activity [5] [%] | Percentage inhibition of kinase enzyme activity [6] [%] | Percentage inhibition of kinase enzyme activity [7] [%] | IC50 ([2]; Homo sapiens, Rec1, 72 h) [nM] | IC50 [2] [nM] | IC50 ([3]; Homo sapiens, SU-DHL-6, 72 h) [nM] | IC50 [3] [nM] | IC50 [7] [nM] | Inhibition of ERK2 [7] | IC50 fold change of nemtabrutinib with the inhibitor [2] | IC50 fold change of nemtabrutinib with the inhibitor [3] |
| --- | --- | --- | --- | --- | --- | --- | --- | --- | --- | --- | --- | --- | --- | --- | --- |
| CC#CC(=O)N1CCC[C@H]1c1nc(-c2ccc(C(=O)Nc3ccccn3)cc2)c2c(N)nccn12 [acalabrutinib] | 5.31 | 21 | 3.1 | -5.14 | 3.57 | -0.58 | -2.02 | – | – | – | – | – | – | – | – |
| C=CC(=O)N1CCC[C@@H](n2nc(-c3ccc(Oc4ccccc4)cc3)c3c(N)ncnc32)C1 [ibrutinib] | 5.25 | 0.51 | 12 | -10.78 | 5.47 | 1.76 | -6.90 | – | – | – | – | – | – | – | – |
| O=C(c1ccc(Oc2ccccc2)cc1Cl)c1c[nH]c2ncnc(N[C@@H]3CC[C@@H](CO)OC3)c12 [nemtabrutinib] | 41.31 | – | – | 0.95 | 17.84 | 100.11 | 67.16 | 2000 | 2040 | 600 | 577 | 505 | did not inhibit | – | – |
| COc1ccc(F)cc1C(=O)NCc1ccc(-c2nn([C@@H](C)C(F)(F)F)c(N)c2C(N)=O)cc1 [pirtobrutinib] | 1.74 | 38 | 13 | -26.62 | 5.53 | 1.20 | 6.64 | – | – | – | – | – | – | 53 | 43 |
| C=CC(=O)N1CCC([C@@H]2CCNc3c(C(N)=O)c(-c4ccc(Oc5ccccc5)cc4)nn32)CC1 [zanubrutinib] | – | – | – | – | – | 11.33 | – | 3.1 | – | 3.8 | – | – | – | – | – |

— paper PMC12586182 (Frontiers in Oncology, 2025)
